Assay results reported in patent publication US20160213569A1, “PHARMACEUTICAL COMPOSITIONS OF RANOLAZINE AND DRONEDARONE” (Gilead Sciences, Inc., priority 2013, published 2016).

Test: Stability of phosphoric acid salt of dronedarone prepared without polymer
Type: physicochemical
Details: 45° C. and 75% relative humidity (RH)

In the case of CCCCc1oc2ccc(NS(C)(=O)=O)cc2c1C(=O)c1ccc(OCCCN(CCCC)CCCC)cc1.O=P(O)(O)O [phosphoric acid salt of dronedarone], the Stability was “unstable”.
